How the values were obtained:
[1] = tested on: CFTR; assay: Whole-cell patch clamp of CFTR currents in HEK293 cells; type: cell-based, human
Source text: A critical next step was to determine whether enDUB-U21-rescued mutant CFTR channels are functional. We focused on N1303K and 4326delTC to represent Class II and Class VI mutations, respectively. HEK293 cells expressing WT CFTR display robust forskolin-activated chloride currents that are blocked by CFTR inhibitor (FIGS. 3C and 3D), and not observed in untransfected cells (FIG. 3E). By contrast, cells expressing either N1303K or 4326delTC alone yielded no forskolin-induced currents (FIGS. 3F and 3G) consistent with their limited surface trafficking and status as disease-causing mutants.
For CFTR channel measurements, whole-cell recordings were carried out in HEK293 and FRT cells at room temperature. Internal solution contained (mM): 113 L-aspartic acid, 113 CsOH, 27 CsCl, 1 NaCl, 1 MgCl2, 1 EGTA, 10 TES, 3 MgATP (pH 7.2). External contained (in mM): 145 NaCl, 4 CsCl, 1 CaCl2, 1 MgCl2, 10 glucose, and 10 TES (pH 7.4). I-V curves were generated from a family of step depolarizations (-80 to +80 mV in 20 mV steps from a holding potential of -40 mV). CFTR currents were activated by perfusion with 10 µM forskolin. In experiments utilizing lumacaftor (3 µM), the drug was added for 24 hrs posttransfection and incubated at 37° C. Ivacaftor was used acutely at 5 µM concentration. Currents were sampled at 20 kHz and filtered at 7 kHz. Traces were acquired at a repetition interval of 10 s.

[2] = tested on: BBS-CFTR-YFP; assay: Flow cytometry assay of CFTR surface density in HEK293 cells; type: cell-based, human
Source text: BBS-tagged YFP-CFTR was engineered to enable simultaneous assessment of total channel expression and surface density using flow cytometry, and probed the impact of six distinct mutations previously categorized as Class II (F508del, R560T, N1303K) or Class VI (Q1412X, 4279insA, 4326delTC) mutations, respectively (FIG. 3A). All six mutations markedly impaired channel surface density compared to WT CFTR (FIG. 3B, black bars). […] We utilized a second enDUB (enDUB-U21) that comprises the catalytic component of ubiquitin-specific protease USP21 (FIG. 3A), which removes all ubiquitin linkage types (Faesen et al. 2011).
Cell surface and total ion channel pools were assayed by flow cytometry in live, transfected HEK293 cells as previously described (Kanner et al. 2017; Kanner et al. 2018). Briefly, 48 hrs post-transfection, cells cultured in 12-well plates gently washed with ice cold PBS containing Ca^2+ and Mg^2+ (in mM: 0.9 CaCl2, 0.49 MgCl2, pH 7.4), and then incubated for 30 min in blocking medium (DMEM with 3% BSA) at 4° C. HEK293 cells were then incubated with 1 µM Alexa Fluor 647 conjugated α-bungarotoxin (BTX647; Life Technologies) in DMEM/3% BSA on a rocker at 4° C. for 1 hr, followed by washing three times with PBS (containing Ca^2+ and Mg^2+ ). […]

[3] = tested on: KCNQ1; assay: Whole-cell patch clamp of KCNQ1 currents in CHO cells; type: cell-based, human
Procedure: Whole-cell patch clamp electrophysiology was used to determine functionality of enDUB-O1-rescued KCNQ1 channels.
Chinese hamster ovary (CHO) cells were obtained from ATCC and cultured at 37° C. in Kaighn’s Modified Ham’s F-12K (ATCC) supplemented with 8% FBS and 100 mg/mL of penicillin-streptomycin. CHO cells were transiently transfected with desired constructs in 35 mm tissue culture dishes—KCNQ1 (0.5 µg) and nano-P2A-CFP (0.5 µg) or enDUBO1-P2A-CFP (0.5 µg) using X-tremeGENE HP (1:2 DNA/reagent ratio) according to the manufacturers’ instructions (Roche).
For potassium channel measurements, whole-cell membrane currents were recorded at room temperature in CHO cells using an EPC-10 patch-clamp amplifier (HEKA Electronics) controlled by the PatchMaster software (HEKA). A coverslip with adherent CHO cells was placed on the glass bottom of a recording chamber (0.7-1 mL in volume) mounted on the stage of an inverted Nikon Eclipse Ti-U microscope. Micropipettes were fashioned from 1.5 mm thin-walled glass and fire-polished. […] Pipette resistance was typically 1.5 MΩ when filled with internal solution. I-V curves were generated from a family of step depolarizations (-40 to +100 mV in 10 mV steps from a holding potential of -80 mV). Currents were sampled at 20 kHz and filtered at 5 kHz. Traces were acquired at a repetition interval of 10 s.

[4] = tested on: CFTR; assay: YFP halide quenching assay in HEK293 cells; type: cell-based, human; details: HEK293, pilot screen of nanobodies
Source text: (§1) While GFP-targeted enDUBs provided critical proof-of-concept efficacy for the targeted deubiquitination approach in rescuing different trafficking-deficient recombinant mutant channels, a key next step was to develop nanobodies towards CFTR itself to enable targeting of endogenous channels. Accordingly, we used purified CFTR NBD1 domain (FIG. 4A) as bait to identify binders using a yeast nanobody library surface display approach (McMahon et al. 2018) (FIG. 4B). After several rounds of magnetic-activated cell sorting (MACS) and fluorescence-activated cell sorting (FACS) selection we isolated 14 unique nanobody binders with a range of affinities for NBD1 as reported by an on-yeast binding assay (FIG. 12A; Table 1). […] Binding of nb.E3h to full-length CFTR in cells was confirmed by a flow cytometric fluorescence resonance energy transfer (flow-FRET) assay (FIG. 4C).
A YFP halide quenching plate-reader assay was adapted from previous work (Galietta et al. 2001). […] Baseline YFP readings (Ex: 510 nm, Em: 538 nm) were taken using a SpectraMax M5 plate-reader (Molecular Devices). An equal amount of 2× activation solution, containing iodide, was added to obtain a final concentration (70 mM Nal, 10 µM forskolin, 5 µM VX770), and a time series recording YFP fluorescence was taken every 2 s. […]
Target sequence in this assay (P13569 387-646 limits assumed): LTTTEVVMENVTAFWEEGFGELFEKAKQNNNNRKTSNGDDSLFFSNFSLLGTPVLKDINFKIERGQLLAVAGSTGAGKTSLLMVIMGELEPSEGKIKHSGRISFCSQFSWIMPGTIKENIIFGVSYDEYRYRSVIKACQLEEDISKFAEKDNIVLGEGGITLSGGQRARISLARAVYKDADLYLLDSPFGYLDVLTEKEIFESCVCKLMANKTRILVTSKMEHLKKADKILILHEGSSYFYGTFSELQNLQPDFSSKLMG

[5] = biological target: T1, full-length CFTR (Homo sapiens, UniProt P13569); assay: Flow cytometric FRET binding assay in HEK293 cells; details: Cerulean-nanobody donor, Venus-CFTR acceptor
T1 construct: expressed in transfected cells; host or cells: HEK293
T1 sequence (P13569 whole entry): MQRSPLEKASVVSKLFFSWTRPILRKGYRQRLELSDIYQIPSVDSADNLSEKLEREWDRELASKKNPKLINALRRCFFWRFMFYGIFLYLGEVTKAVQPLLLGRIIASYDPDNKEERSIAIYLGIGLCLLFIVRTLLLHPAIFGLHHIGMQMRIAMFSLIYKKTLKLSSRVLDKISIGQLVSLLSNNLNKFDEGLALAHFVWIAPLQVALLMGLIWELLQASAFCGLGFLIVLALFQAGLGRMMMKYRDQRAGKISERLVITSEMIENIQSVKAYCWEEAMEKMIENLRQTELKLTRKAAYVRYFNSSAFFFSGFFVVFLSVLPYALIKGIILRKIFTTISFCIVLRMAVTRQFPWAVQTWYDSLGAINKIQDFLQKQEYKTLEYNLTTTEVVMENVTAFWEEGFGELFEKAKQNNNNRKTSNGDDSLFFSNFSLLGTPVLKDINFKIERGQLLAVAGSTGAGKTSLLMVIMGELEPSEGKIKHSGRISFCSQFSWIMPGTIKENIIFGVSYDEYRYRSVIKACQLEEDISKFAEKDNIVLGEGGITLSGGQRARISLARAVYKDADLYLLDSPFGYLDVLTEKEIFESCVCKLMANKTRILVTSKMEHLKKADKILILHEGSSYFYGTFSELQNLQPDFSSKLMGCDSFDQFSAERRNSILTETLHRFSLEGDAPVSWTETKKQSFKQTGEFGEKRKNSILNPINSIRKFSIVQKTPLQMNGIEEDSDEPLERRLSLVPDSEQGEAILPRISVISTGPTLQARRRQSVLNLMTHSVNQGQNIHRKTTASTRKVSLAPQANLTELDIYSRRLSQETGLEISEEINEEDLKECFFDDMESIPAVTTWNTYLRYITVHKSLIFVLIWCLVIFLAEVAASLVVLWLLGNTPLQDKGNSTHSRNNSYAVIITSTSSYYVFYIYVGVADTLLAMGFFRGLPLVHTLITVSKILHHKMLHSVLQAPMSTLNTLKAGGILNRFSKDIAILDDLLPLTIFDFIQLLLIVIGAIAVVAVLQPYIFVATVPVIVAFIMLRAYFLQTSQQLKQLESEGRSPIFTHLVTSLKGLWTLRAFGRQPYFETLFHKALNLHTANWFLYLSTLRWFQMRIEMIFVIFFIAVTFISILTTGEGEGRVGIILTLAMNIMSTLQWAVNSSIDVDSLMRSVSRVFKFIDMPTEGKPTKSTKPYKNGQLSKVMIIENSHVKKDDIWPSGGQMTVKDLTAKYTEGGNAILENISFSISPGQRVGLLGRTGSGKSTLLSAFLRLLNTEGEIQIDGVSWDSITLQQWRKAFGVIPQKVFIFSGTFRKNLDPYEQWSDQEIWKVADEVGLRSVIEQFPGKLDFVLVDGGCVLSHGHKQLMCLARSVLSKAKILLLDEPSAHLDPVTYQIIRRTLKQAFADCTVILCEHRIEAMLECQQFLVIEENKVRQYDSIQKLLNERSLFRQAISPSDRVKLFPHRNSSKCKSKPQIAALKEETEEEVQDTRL
Source text: as §1
FRET binding assays were performed via flow cytometry in live, transfected HEK293 cells as previously described (Lee et al. 2016). […] Cerulean (Cer), Venus (Ven), and FRET signals were analyzed using the following laser / filter set configurations: BV421 (Ex: 405 nm, Em: 450/50), FITC (Ex: 488 nm, Em: 525/50), and BV520 (Ex: 405 nm, Em: 525/50), respectively. […]

## CC(C)(C)c1cc(C(C)(C)C)c(NC(=O)c2c[nH]c3ccccc3c2=O)cc1O [ivacaftor]
[1]; enDUB-U21 co-expression + lumacaftor, ivacaftor 5 µM
  Forskolin-stimulated 4326delTC or N1303K currents after ivacaftor: further enhanced
[1]; nano-expressing HEK293 cells, lumacaftor pre-incubation, ivacaftor 5 µM
  Forskolin-induced 4326delTC and N1303K currents after ivacaftor: further elevated

## Cc1ccc(NC(=O)C2(c3ccc4c(c3)OC(F)(F)O4)CC2)nc1-c1cccc(C(=O)O)c1 [lumacaftor]
[2]; lumacaftor 24 hrs pre-incubation or enDUB co-expression
  F508del and R560T CFTR surface expression: did not increase F508del and R560T surface expression
[2]; lumacaftor 24 hrs pre-incubation or enDUB co-expression (enDUB compared to lumacaftor)
  Surface trafficking of the other four CFTR mutations (N1303K, Q1412X, 4279insA, 4326delTC): improved trafficking of the remaining 4 mutations
[1]; nano-expressing HEK293 cells, lumacaftor pre-incubation
  Forskolin-induced 4326delTC and N1303K currents: relatively small

## COc1ccc(-c2csc(NC(=O)[C@H]3CCCCN3S(=O)(=O)c3ccc(C)cc3)n2)cc1 [ML277, (R)-N-(4-(4-methoxyphenyl)thiazol-2-yl)-1-tosylpiperidine-2-carboxamide]
[3]; R591H + enDUB-O1, ML277 1 µM
  enDUB-O1-rescued R591H current amplitude: markedly increased enDUB-O1-rescued R591H current amplitude to beyond WT KCNQ1 levels
[3]; R591H + nano, 1 µM
  R591H KCNQ1 currents: modestly increased R591H currents

B1: nb.E3h: CFTR (NBD1) target nanobody clone, SEQ ID No: 25 (protein)
VHH: QVQLQESGGGLVQAGGSLRLSCAASGTISGSGSMGWYRQAPGKEREFVAAINVGSNTYYADSVKGRFTISRDNAKNTVYLQMNSLKPEDTAVYYCAVRFGYYYRHTYWGQGTQVTVSS
modifications: nanobody
[4]
  Performance in halide sensor assay when converted to an enDUB: superior performance
[1]; HEK293
  Performance in patch clamp assay when converted to an enDUB: superior performance
[5]
  Binding to full-length CFTR in cells (flow-FRET): confirmed

— patent US20230235084A1, “COMPOSITIONS AND METHODS FOR TARGETED PROTEIN STABILIZATION BY REDIRECTING ENDOGENOUS DEUBIQUITINASES” (THE TRUSTEES OF COLUMBIA UNIVERSITY IN THE CITY OF NEW YORK, priority 2020, published 2023)
